Test results taken from patent US20130287807A1, “COMPOUNDS FOR TREATING SYMPTOMS ASSOCIATED WITH PARKINSON'S DISEASE” (priority 2008, published 2013).
Ends that are not written are not given here.

Key:
[1] = system: monoclonal antibody MV-002; assay: In vitro binding assay (ELISA), BSA-coupled peptides, parental antibody MV-002; design: species or system C57/B16 mice; conditions: Table 1 (MV-002); peptide-BSA on plate, compared to original epitope
Procedure: Peptides derived from Phage Display as well as variants thereof were coupled to BSA and bound to ELISA plates (1 μM; as indicated in the respective figures) and subsequently incubated with the monoclonal antibody that was used for the screening procedure to analyse binding capacity of identified peptides.
Legend to Table 1: the binding capacity is coded by the following binding code: 1:X describes the dilution factor of the parental AB. Ac- . . . indicates acetylated AA.

[2] = system: monoclonal antibody (DAEFRH-peptide-specific); assay: Inhibition assay (ELISA): mimotope peptides compete with plate-bound original epitope DAEFRH for recognition by the monoclonal antibody; type: binding, Mice; design: key to inhibition (s/m/—): s: strong inhibition; m: moderate inhibition; —: -: no inhibition; conditions: for inhibition of binding of the monoclonal antibody to the original epitope: text to FIGS. 2-9; for Inhibitory capacity of mimotopes: summary Tables 1 and 2 (Examples 2, 3); for inhibition (s/m/—): peptide lists of Example 4
Source text: Mice are vaccinated with the 6mer peptide DAEFRH (natural N-terminal Aβ42 sequence) linked to the protein bovine serum albumin BSA (to make use of the hapten-carrier-effect), emulsified in CFA (first injection) and IFA (booster injections). DAEFRH-peptide-specific, antibody-producing hybridomas are detected by ELISA (DAEFRH-peptide-coated ELISA plates).
FIGS. 2 and 3 describe the results of inhibition assays performed with mimotope peptides included in and obtained from the 5 libraries (as described in WO 2004/062556). The mimotope peptides compete with the original epitope for recognition by the monoclonal antibody. Original epitope and mimotope peptides contain an additional C at the C-terminus for coupling to a protein carrier (if desired).
(§1) After blocking with PBS/BSA 1% (200 μl/well, 12 h, 4° C.), the plates are washed 3× times with PBS/Tween. Then, biotinylated monoclonal antibody (1:2000, 50 μl/well) and peptides (50 μl/well) at 50, 5, 0.5, 0.05, 0.005, and 0.0005 μg/ml are added for 20 min. at 37° C. The plates are washed 3× times with PBS/Tween and are incubated with horseradish peroxidase (HRP)-labeled streptavidin (100 μl/well, 30 min, RT). The plates are washed 5× times with PBS/Tween and are incubated with ABTS+H2O2(0.1% w/v, 10 to 45 min) and the reaction is stopped with citric acid followed by photometric evaluation (wavelength 405 nm).
as §1, with “different concentrations” for “50, 5, 0.5, 0.05, 0.005, and 0.0005 μg/ml”, “ABTS+H2O2 (0.1%” for “ABTS+H2O2(0.1%”
as §1, with “different concentrations” for “50, 5, 0.5, 0.05, 0.005, and 0.0005 μg/ml”

[3] = target: monoclonal antibody MV-001; assay: ELISA on peptide-BSA; code 3 = strong binding, OD halfmax 1:>20000
[4] = competition ELISA, plate-bound DAEFRH-C-BSA

For AGEIYFERC [p4806], the “Binding Capacity” value [1] was 1 (weak binding :<40000).

With GMIVFPHC [p4679] the “Binding Capacity” value [1] was 3 (strong binding :>320000).

GQIRFDHC [p4669] was tested, and the “Binding Capacity” value [1] was 3 (strong binding :>320000).

GQIIFQSC [p4668] was tested, and the “Binding Capacity” value [1] was 2 (medium binding :40000-320000).

In the case of GEIRFELC [p4796], the “Binding Capacity” value [1] is reported as 2 (medium binding :40000-320000).

For QLPLFVLC [p4700], the “Binding Capacity” value [1] was 1 (weak binding :<40000).

GSLFFWPC [p4688] was tested, and the “Binding Capacity” value [1] was 2 (medium binding :40000-320000).

For HMRMYFEC [p4687], the “Binding Capacity” value [1] was 3 (strong binding :>320000).

In the case of GEMWFALC [p4671], the “Binding Capacity” value [1] is reported as 3 (strong binding :>320000).

In the case of GQLKFPFC [p4690], the “Binding Capacity” value [1] is reported as 3 (strong binding :>320000).

With SGEIYFERC [p4805] the “Binding Capacity” value [1] was 1 (weak binding :<40000).

In the case of GELFFPKC [p4685], the “Binding Capacity” value [1] is reported as 3 (strong binding :>320000).

GELYFRAC [p4677] was tested, and the “Binding Capacity” value [1] was 3 (strong binding :>320000).

In the case of GQIMFPRC [p4686], the “Binding Capacity” value [1] is reported as 3 (strong binding :>320000).

For KLPLFVMC [p4691], the “Binding Capacity” value [1] was 1 (weak binding :<40000).

In the case of Ac-GEIYFERC [p4804], the “Binding Capacity” value [1] is reported as 2 (medium binding :40000-320000).

GEIRFALC [p4678] was tested, and the “Binding Capacity” value [1] was 3 (strong binding :>320000).

AIPLFVMC [p4682] was tested, and the “Binding Capacity” value [1] was 1 (weak binding :<40000).

With GDLKFPLC [p4683] the “Binding Capacity” value [1] was 3 (strong binding :>320000).

`CC[C@H](C)[C@H](NC(=O)[C@H](CCCCN)NC(=O)[C@H](CC(C)C)NC(=O)[C@H](CCC(=O)O)NC(=O)[C@H](CCCNC(=N)N)NC(=O)[C@@H](N)CC(=O)O)C(=O)N[C@@H](CS)C(=O)O` [Peptide 1237, DRELKI] was tested, and the “inhibition of binding of the monoclonal antibody to the original epitope” value (“inhibition of binding … to the original epitope” for short) [2, 4] was “block epitope recognition” and the “Inhibitory capacity of mimotopes” value [2] was “weak”.

ATYAYWN [Peptide 4038] was tested, and the “inhibition of binding … to the original epitope” value [2, 4] was “not inhibitory” and the “inhibition (s/m/—)” value [2] was “—”.

In the case of GQIKFAQC [p4694], the “Binding Capacity” value [1] is reported as 3 (strong binding :>320000).

With GTLIFHHC [p4695] the “Binding Capacity” value [1] was 2 (medium binding :40000-320000).

With KKELRI (KKELRIC) [Peptide 1234] the “inhibition of binding … to the original epitope” value [2, 4] was “hardly inhibitory” and the “Inhibitory capacity of mimotopes” value [2] was “none”.

For DIGWRG (DIGWRGC) [Peptide 3011], the “inhibition of binding … to the original epitope” value [2, 4] was “not inhibitory” and the “Inhibitory capacity of mimotopes” value [2] was “none”.

For `CC[C@H](C)[C@H](NC(=O)[C@H](CCCNC(=N)N)NC(=O)[C@H](CC(C)C)NC(=O)[C@H](CCC(=O)O)NC(=O)[C@H](CCCNC(=N)N)NC(=O)[C@@H](N)CC(=O)O)C(=O)N[C@@H](CS)C(=O)O` [Peptide 1235, DRELRI], the “inhibition of binding … to the original epitope” value [2, 4] was “block epitope recognition” and the “Inhibitory capacity of mimotopes” value [2] was “strong”.

For GEMQFFIC [p4676], the “Binding Capacity” value [1] was 3 (strong binding :>320000).

For GTIFFRDC [p4692], the “Binding Capacity” value [1] was 1 (weak binding :<40000).

For GAEFRFT [Peptide 4014], the “inhibition of binding … to the original epitope” value [2, 4] was “moderately inhibit” and the “inhibition (s/m/—)” value [2] was “m”.

VPTSALA [Peptide 4037] was tested, and the “inhibition of binding … to the original epitope” value [2, 4] was “not inhibitory” and the “inhibition (s/m/—)” value [2] was “—”.

For GELFFEKC [p4795], the “Binding Capacity” value [1] was 2 (medium binding :40000-320000).

With `C[C@@H](O)[C@H](NC(=O)[C@H](CCCNC(=N)N)NC(=O)[C@H](Cc1ccccc1)NC(=O)[C@H](CCC(=O)O)NC(=O)[C@H](Cc1c[nH]c2ccccc12)NC(=O)[C@@H](N)CO)C(=O)N[C@@H](CS)C(=O)O` [Peptide 4002, SWEFRT] the “IC50 (inhibition of monoclonal antibody recognition of DAEFRH)” value ([2]; competition ELISA, plate-bound DAEFRH-C-BSA, biotinylated mAb 1:2000) was “less than 0.4 μg/ml”, the “inhibition of binding … to the original epitope” value [2, 4] was “block epitope recognition” and the “Inhibitory capacity of mimotopes” value [2] was “strong”.

With SWFRNP [Peptide 4019] the “inhibition of binding … to the original epitope” value [2, 4] was “not inhibitory” and the “inhibition (s/m/—)” value [2] was “—”.

With DNEFRSP [Peptide 4012] the “inhibition of binding … to the original epitope” value [2, 4] was “moderately inhibit” and the “inhibition (s/m/—)” value [2] was “s”.

With `C[C@H](NC(=O)[C@H](CC(=O)O)NC(=O)[C@H](CCCNC(=N)N)NC(=O)[C@H](Cc1ccccc1)NC(=O)[C@H](CCC(=O)O)NC(=O)[C@H](Cc1c[nH]c2ccccc12)NC(=O)[C@@H](N)CC(=O)O)C(=O)N[C@@H](CS)C(=O)O` [Peptide 1241, DWEFRDA] the “inhibition of binding … to the original epitope” value [2, 4] was “block epitope recognition” and the “Inhibitory capacity of mimotopes” value [2] was “strong”.

With GQIWFISC [p4666] the “Binding Capacity” value [1] was 1 (weak binding :<40000).

GELQFPPC [p4672] was tested, and the “Binding Capacity” value [1] was 3 (strong binding :>320000).

In the case of CGEIYFER [p4807], the “Binding Capacity” value [1] is reported as 1 (weak binding :<40000).

In the case of GQILFPVC [p4684], the “Binding Capacity” value [1] is reported as 3 (strong binding :>320000).

DAEFRWP [Peptide 4011] was tested, and the “inhibition of binding … to the original epitope” value [2, 4] was “strongly block epitope recognition” and the “inhibition (s/m/—)” value [2] was “s”.

For GQIQFPLC [p4697], the “Binding Capacity” value [1] was 3 (strong binding :>320000).

B1: p4712 (peptide)
peptide: SEFSHSSC
In the case of B1, the OD halfmax 1:X (dilution factor of the parental antibody at half-maximal OD) (dilutionfactor(1:x)) [3] is reported as > 20000.

B2: p4702 (peptide)
peptide: GEMRHQPC
In the case of B2, the OD halfmax 1:X (dilution factor of the parental antibody at half-maximal OD) (dilutionfactor(1:x)) [3] is reported as > 20000.

B3: p4710 (peptide)
peptide: SAGSFRHC
With B3 the OD halfmax 1:X (dilution factor of the parental antibody at half-maximal OD) (dilutionfactor(1:x)) [3] was > 20000.

B4: p4745 (peptide)
peptide: THMEFRRC
With B4 the OD halfmax 1:X (dilution factor of the parental antibody at half-maximal OD) (dilutionfactor(1:x)) [3] was > 20000.

B5: p4726 (peptide)
peptide: LHIPFRHC
With B5 the OD halfmax 1:X (dilution factor of the parental antibody at half-maximal OD) (dilutionfactor(1:x)) [3] was > 20000.

B6: p4722 (peptide)
peptide: EFLRHTLC
In the case of B6, the OD halfmax 1:X (dilution factor of the parental antibody at half-maximal OD) (dilutionfactor(1:x)) [3] is reported as > 20000.

B7: p4744 (peptide)
peptide: SELRHSTC
In the case of B7, the OD halfmax 1:X (dilution factor of the parental antibody at half-maximal OD) (dilutionfactor(1:x)) [3] is reported as > 20000.

B8: p4714 (peptide)
peptide: ELFKHHLC
For B8, the OD halfmax 1:X (dilution factor of the parental antibody at half-maximal OD) (dilutionfactor(1:x)) [3] was > 20000.

B9: p4743 (peptide)
peptide: SNSEFRRC
B9 was tested, and the OD halfmax 1:X (dilution factor of the parental antibody at half-maximal OD) (dilutionfactor(1:x)) [3] was > 20000.

B10: p4723 (peptide)
peptide: ATPLFRHC
For B10, the OD halfmax 1:X (dilution factor of the parental antibody at half-maximal OD) (dilutionfactor(1:x)) [3] was > 20000.

B11: p4701 (peptide)
peptide: NELRHSTC
For B11, the OD halfmax 1:X (dilution factor of the parental antibody at half-maximal OD) (dilutionfactor(1:x)) [3] was > 20000.

B12: p4747 (peptide)
peptide: QLFKHSPC
B12 was tested, and the OD halfmax 1:X (dilution factor of the parental antibody at half-maximal OD) (dilutionfactor(1:x)) [3] was > 20000.
